Test results: patent publication US11207419B2, “Cadherin-17 specific antibodies and cytotoxic cells for cancer treatment” (ARBELE LIMITED, priority 2016, dated 2021)

B1: Lic3: mouse monoclonal antibody against CDH17, produced using recombinant ectodomain 1-2 of CDH17 as immunogen (antibody, V domains shown)
VH: EVQLVESGGGLVKPGGSLKLSCAASGFSFSDYYMYWVRQAPEKRLEWVASISFDGTYTYYTDRVKGRFTISRDNAKNNLYLQMSSLKSEDTAMYYCARDRPAWFPYWGQGTLVTVSA
VL: DVLMTQIPLSLTVSLGDQASISCRSSQSIVHSNGNTYLEWYLQRPGQSPKLLIYKVSNRFSGVPDRFSGSGSGTDFTLKISRVEAEDLGVYYCFQGSHVPLTFGAGTKLELK
modifications: Lic3 VH; Lic3 VL
notes: mouse monoclonal antibody against CDH17, produced using recombinant ectodomain 1-2 of CDH17 as immunogen
B2: Lic5: in-house mouse monoclonal antibody against CDH17, from hybridoma; VL SEQ ID NO. 29, VH SEQ ID NO. 30 (antibody, V domains shown)
VH: EVQLEESGGGLVKPGGSLKLPCAASGSSFSDFYMYWVRQTPEKRLEWVASISFDGTYTYYTDRVKGRFTISRDNAKNNLYLQMSSLKSEDTAMYYCARDRPAWFPYWGQGTLVTVSAA
VL: DIVLTQTTLSLNVSLGDQASISCRSSQSIVHSNGNTYLEWYLQRPGQSPKLLIYKVSNRFSGVPDRFSGSGSGTDFTLKISRVEAEDLGVYYCFQGSHVPLTFGAGTKLELKRA
notes: in-house mouse monoclonal antibody against CDH17, from hybridoma; 30

Key:
MHCC97-L (97L) cells = experiment: In vitro cell proliferation MTT assay, 97L cells; assay type: cell-based, human; details: cultured 97L cells; for growth inhibition: treatment for 2 days, MTT
Method: (§1) A pre-determined number of 97L and PLC cells was seeded onto 96-well culture plates for 1 day. 150 ug/ml mouse IgG (Sigma-Aldrich, St Louis, Mo., USA) as a control for Lic5. After treatment, the proliferation of treated cells was measured using Cell Proliferation Kit I (Roche, Indianapolis, Ind., USA) and as described. In brief, MTT reagent was incubated with the treated cells for 4 hours. Colorimetric signals were then measured after addition of 10% SDS. Independent cell proliferation MTT assays were performed at least twice for result confirmation.
(§2) Before treating orthotopic tumor-bearing mice with the purified Lic5, the anti-tumor effect of Lic5 alone or combined with cisplatin or epirubicin in cultured HCC cell lines in vitro was examined using cell proliferation MTT assay (FIG. 31(A)).

PLC/PRF/5 (PLC) cells = experiment: In vitro cell proliferation MTT assay, PLC cells; assay type: cell-based, human; details: for growth inhibition: cultured PLC cells, treatment for 2 days, MTT
Method: as §1, §2

[1] = test system: luciferase-labelled 97L orthotopic liver tumors; experiment: Orthotopic tumor xenograft model, tumor growth by live imaging; assay type: in vivo, nude mice; details: net photon count relative to IgG control 3 weeks after treatment; 6 mg/kg Lic5, 1 mg/kg drug, intraperitoneal 3 times/week for 3 weeks
[2] = test system: 97L orthotopic liver tumors; experiment: Animal survival study, orthotopic liver tumors; assay type: in vivo, nude mice; details: for animal survival rate: 8 mg/kg Lic5, 1 mg/kg epirubicin, intraperitoneal 3 times/week for 3 weeks, monitored till 6 weeks after treatment
Method: Orthotopic liver tumors were established as above using 97L cells. Orthotopic tumor-bearing mice received the following treatments intraperitoneally 3 times/week for 3 weeks (11-15 mice in each group): (1) 8 mg/kg Lic5; (2) 1 mg/kg cisplatin; (3) 1 mg/kg epirubicin; (4) combined treatment of Lic5 and cisplatin; (5) combined treatment of Lic5 and epirubicin; (6) 8 mg/kg mouse IgG as Lic5 control. Animal survival was continuously monitored till 6 weeks after treatment.
Statistical analyses were performed using SPSS version 19 (SPSS Inc., Chicago, Ill., USA). Data presented in bar chart are expressed as mean ±SD/SEM. Student's t-test was used to calculate the significance of the difference between treatment groups and control group in both cell proliferation MTT assay and animal tumor xenograft experiments. Kaplan-Meier method was employed for survival analyses, while the differences in survival were calculated using log-rank test. A p-value of less than 0.05 was considered statistically significant.

GPC3 = target: T1, GPC3 (Homo sapiens, UniProt P51654); details: phase I study; cited from earlier work
T1 construct: host or cells: HCC patients

[3] = test system: tumor cells of HCC and GC; experiment: Binding of mAbs to tumor cells; assay type: cell-based
Text: Tumor antigens derived from clinical samples were selected for the antibodies with specificity directed against the tumor-restricted CDH17 epitopes. […] By lowering and/or varying the antibody affinity (through computational modeling), CDH17-CAR-T cells will have enhanced differential binding to the tumor cell surface.

[4] = test system: Oum1 human gastric cancer cells; experiment: Internalization by confocal microscopy; assay type: cell-based; details: Lic5-FITC, over 30 mins at 37° C.
Method: (§3) FIG. 18 presents photographs showing the internalization of Lic5 into human gastric cancer cells as candidate for antibody drug conjugate; (a) photographs showing the staining of DAPI (blue) and Lic5-FITC (green) at indicated times; (b) photographs showing the merged staining of DAPI (blue) and Lic5-FITC (green) at indicated times; Lic5-FITC (green) internalization in Oum1 human gastric cancer cells over 30 mins at 37° C. was determined by confocal microscopy; nucleus was stained with DAPI.
as §3, with “In another aspect, the” for “FIG. 18 presents photographs showing the”, “cells is indicative of a” for “cells as”, “drug conjugate as shown in FIG. 18;” for “drug conjugate;”

CDH17 = target: T2, CDH17 (Homo sapiens, UniProt Q12864); experiment: Immunoreactivity by western blot and immunohistochemistry; assay type: binding; details: western blot on 97L cell lysate, immunohistochemistry on human HCC tissue
T2 construct: A single band of about 120 kDa corresponding to the apparent molecular weight of CDH17 was detected in CDH17-expressing 97L cells; endogenous in cells; host or cells: 97L cell lysate (western blot); paraffin-embedded human HCC tissue (immunohistochemistry)
Method: An in-house hybridoma cell line secreting Lic5 was generated as described. Hybridoma cells were maintained in DMEM supplemented with 10% FBS and 100 units/ml penicillin and streptomycin. To collect Lic5, hybridoma cells were cultured in serum-free hybridoma-SFM (Life Technologies) for 6 days. The cultured supernatant was collected and purified using Protein G column (Life Technologies). The concentration of the purified Lic5 was estimated using RC DC Protein Assay (Bio-Rad, Hercules, Calif., USA). The purity of Lic5 was assessed by sodium dodecyl sulfate-polyacrylamide gel electrophoresis (SDS-PAGE) under reducing condition, followed by Coomassie Blue staining. Immunoreactivity and specificity of Lic5 were confirmed by western blot using 97L cell lysate and by immunohistochemistry using paraffin-embedded human HCC tissue. […]
Immunohistochemistry was performed on paraffin-embedded orthotopic tumor xenografts and human HCC specimen as described. […] Signals were detected using EnVision+System-HRP Labelled Polymer Anti-mouse (Dako, Carpinteria, Calif., USA) and visualized using Liquid DAB+Substrate Chromogen System (Dako). […]
A single band of about 120 kDa corresponding to the apparent molecular weight of CDH17 was detected in CDH17-expressing 97L cells when Lic5 was used as a primary antibody for western blot (FIG. 30(B)). […]

[5] = 2 days, compared to mouse IgG-treated cells

Molecule | growth inhibition (MHCC97-L (97L) cells) [%] | growth inhibition (PLC/PRF/5 (PLC) cells) [%] | xenograft growth inhibition [1] [%] | animal survival rate [2] [%] | binding to tumor cells [3] | further results
N.N.[Cl][Pt][Cl] [cisplatin] | 31.6 | 37.6 | 48.6 | – | – | difference in survival compared to control group ([2]; log-rank test versus mouse IgG control): did not reach any statistically significant values
COc1cccc2c1C(=O)c1c(O)c3c(c(O)c1C2=O)C[C@@](O)(C(=O)CO)C[C@@H]3O[C@H]1C[C@H](N)[C@@H](O)[C@H](C)O1 [epirubicin] | 21.9 | 8.1 | 37.9 | 25 | – | –
GC33: anti-GPC3 mAb developed by Chugai | – | – | – | – | – | clinical response (GPC3): no partial or complete response
B1 | – | – | – | – | bind tumor cells of HCC and GC only | –
B2 | – | – | – | 63.6 | bind tumor cells of HCC and GC only | growth of cultured cells, single treatment (MHCC97-L (97L) cells; [5]): inhibited the growth; growth of cultured cells, single treatment (PLC/PRF/5 (PLC) cells; [5]): inhibited the growth; internalization into cells [4]: internalization; immunoreactivity against CDH17 (CDH17): high immunoreactivity against CDH17
